12 molecules from patent US20250230165A1, “HETEROCYCLIC COMPOUNDS FOR USE IN THE TREATMENT OF CANCER” (ARTIOS PHARMA LIMITED, priority 2021, published 2025) can be followed below.

For this assay, the target named is T1, Human Polθ polymerase domain (aa1820-2590) (Homo sapiens, UniProt O75417).
T1 construct: Human Polθ polymerase domain (aa1820-2590) was expressed in E. coli; made in house; host or cells: E. coli
T1 sequence (O75417 1820-2590): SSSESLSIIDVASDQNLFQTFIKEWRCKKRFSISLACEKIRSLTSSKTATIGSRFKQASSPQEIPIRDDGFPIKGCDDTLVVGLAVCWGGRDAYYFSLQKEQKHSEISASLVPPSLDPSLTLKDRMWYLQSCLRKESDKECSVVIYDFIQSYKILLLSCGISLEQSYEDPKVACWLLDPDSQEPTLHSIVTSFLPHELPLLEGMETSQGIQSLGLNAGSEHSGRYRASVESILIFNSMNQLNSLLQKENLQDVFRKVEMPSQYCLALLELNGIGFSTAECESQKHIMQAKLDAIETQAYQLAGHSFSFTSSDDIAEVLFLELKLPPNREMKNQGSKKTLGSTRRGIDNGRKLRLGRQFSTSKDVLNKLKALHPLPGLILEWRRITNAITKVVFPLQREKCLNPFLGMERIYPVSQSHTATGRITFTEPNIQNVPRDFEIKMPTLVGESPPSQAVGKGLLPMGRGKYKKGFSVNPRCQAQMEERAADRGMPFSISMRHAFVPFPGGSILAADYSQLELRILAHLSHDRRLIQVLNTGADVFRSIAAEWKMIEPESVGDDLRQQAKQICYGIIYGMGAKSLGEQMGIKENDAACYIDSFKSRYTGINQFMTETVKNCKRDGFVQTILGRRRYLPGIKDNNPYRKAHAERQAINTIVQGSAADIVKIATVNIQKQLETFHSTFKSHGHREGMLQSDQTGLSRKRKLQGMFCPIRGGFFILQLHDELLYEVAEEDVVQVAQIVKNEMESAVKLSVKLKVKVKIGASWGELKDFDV
Nature of the assay: Polθ Polymerase Domain Kinact/KI Assay (PicoGreen). To be noted: 0.8 nM Polθ, 100 nM DNA substrate, kobs vs [I] fit for 2-step covalent inhibitor. Type of assay: biochemical. The method, then:
Polθ Polymerase Domain Kinact/KI Assay
A PicoGreen assay was used to measure the Kinact and KI values of covalent compounds that inhibit the activity of Polθ in vitro.
Human Polθ polymerase domain (aa1820-2590) was expressed in E. coli, purified, aliquoted and stored at −80° C. until required. Polθ substrate was generated from a 1.2:1 mix of DNA II Short to DNA II Long to give a final concentration of […] substrate in annealing buffer (20 mM Tris pH 7.5, 50 mM NaCl). The substrate was heated in […] aliquots to 95° C. in a heating block for 5 min before the heating block switched off, the reaction left to cool to rt and stored at −20° C. until required.
Assay measurements were performed with 1× buffer comprising 25 mM Tris pH 7.5, 12.5 mM NaCl, […], 5% (v/v) glycerol, 0.01% v/v Triton x-100, 0.1 mg/ml BSA, 1 mM DTT. Test compounds were prepared by dilution in 100% DMSO to give a 12 μM intermediate stock of each (100× final top concentration). 100 nL of 23×1:1.5-fold serial dilutions and a DMSO only control were dispensed using the Tecan dispenser into Greiner 384 well black low volume plates (product code 784076). DMSO concentration was maintained at 1% of the final assay volume by back filling with DMSO.
2× Working stock of substrate (200 nM of DNA substrate and […] dNTPs) and enzyme ([…] PolΘ) were made up in assay buffer. 5 μL/well of both enzyme and substrate 2× solutions were dispensed using a Tempest dispenser (Formulatrix) into assay plates that had been pre-dispensed with compound to give a final assay concentration of 100 nM DNA substrate, […] dNTPs and 0.8 nM Polθ. To stop the reaction, […] of a solution containing 25 mM Tris-HCl pH 7.5 and 20 mM EDTA was added at […] (t=0, 2.5, 5, 7.5, 10, 12.5, 15, 20, 25, 30, 35, 40, 45, 50, 55 and 60 min) using the Tempest's time delay function. The plates were covered during the time course to prevent evaporation. After completing the assay, 5 μL of detection reagent (25 mM Tris-HCl pH 7.5 and 2.5% (v/v) PicoGreen) was dispensed into the wells using a Tempest liquid handler (Formulatrix) and plates subsequently read on the CLARIOstar Plus (BMG Labtech) using the default optical settings for fluorescein and the auto gain/focus settings.
All data analysis was carried out using GraphPad Prism V.8 (GraphPad Software Inc, San Diego, CA) Time course data for each inhibitor concentration was fitted to equation 1 to determine kobs values.^1 Any time points where the control (DMSO alone) reaction was no longer linear were excluded from the analysis. 1) Evaluation of Enzyme Inhibitors in Drug Discovery (Ch9), R. A Copeland, Wiley, 2nd Edition 2013.
A secondary plot of kobs vs [I] is used to determine the Kinact and KI parameters (for a 2-step covalent inhibitor) by fitting to equation 2.^1
As for `C=CC(=O)N1CC(O[C@H]2CN(CCN3C[C@H]4CC(=O)N(c5cc(C(F)(F)F)cc(C)n5)[C@@H]4C(=O)N(C)c4cccc(F)c43)C[C@@H]2O)C1` (relative stereo) [Example 11, (3aR,11aS)-5-(2-((rel-trans)-3-((1-acryloylazetidin-3-yl)oxy)-4-hydroxypyrrolidin-1-yl)ethyl)-6-fluoro-10-methyl-1-(6-methyl-4-(trifluoromethyl)pyridin-2-yl)-1,3a,4,5,10,11a-hexahydro-2H-benzo[b]pyrrolo[2,3-f][1,4]diazocine-2,11(3H)-dione], the Kinact/Kl came out at 400000 M⁻¹ s⁻¹.

In turn, `C=CC(=O)N1CC2(CN(CCN3C[C@H]4CC(=O)N(c5cc(C(F)(F)F)cc(C)n5)[C@@H]4C(=O)N(C)c4cccc(C)c43)C[C@@]2(C)C#N)C1` (racemic) [Example 119b, (S/R)-2-acryloyl-6-(2-((3aR,11aS)-6,10-dimethyl-1-(6-methyl-4-(trifluoromethyl)pyridin-2-yl)-2,11-dioxo-1,2,3,3a,4,10,11,11a-octahydro-5H-benzo[b]pyrrolo[2,3-f][1,4]diazocin-5-yl)ethyl)-8-methyl-2,6-diazaspiro[3.4]octane-8-carbonitrile] came in with a Kinact/Kl of 3.87e+06 M⁻¹ s⁻¹.

In turn, `C=C(CN(C)C)C(=O)N1CC(CCCCN2C[C@H]3CC(=O)N(c4cc(C(F)(F)F)cc(C)n4)[C@@H]3C(=O)Nc3cccc(C)c32)C1` [Example 192, (3aR,11aS)-5-(4-(1-(2-((dimethyl-amino)methyl)-acryloyl)azetidin-3-yl)butyl)-6-meth-yl-1-(6-methyl-4-(trifluoromethyl)-pyridin-2-yl)-1,3a,4,5,10,11a-hexahydro-2H-benzo[b]pyrrolo [2,3-f][1,4]diazo-cine-2,11(3H)-dione] had a Kinact/Kl of 2.18e+06 M⁻¹ s⁻¹.

Molecule `C=C(CN(C)C)C(=O)Nc1ccc(CN2C[C@H]3CC(=O)N(c4cc(C(F)(F)F)cc(C)n4)[C@@H]3C(=O)N(C)c3cccc(C)c32)cc1` [Example 209, N-(4-(((3aR,11aS)-6,10-dimethyl-1-(6-methyl-4-(trifluoromethyl)pyridin-2-yl)-2,11-dioxo-1,2,3,3a,4,10,11,11a-octahydro-5H-benzo[b]pyrrolo[2,3-f][1,4]diazocin-5-yl)methyl)phenyl)-2-((dimethylamino)methyl)acrylamide] registered a Kinact/Kl of 530000 M⁻¹ s⁻¹.

`C=CC(=O)N1Cc2nc(CN3C[C@H]4CC(=O)N(c5cc(C(F)(F)F)cc(C)n5)[C@@H]4C(=O)N(C)c4cccc(Cl)c43)cn2CC1C(F)F` (mixture of isomers) [Example 243b, (3aR,11aS)-5-(((R/S)-7-acryloyl-6-(difluoromethyl)-5,6,7,8-tetrahydroimidazo[1,2-a]pyrazin-2-yl)methyl)-6-chloro-10-methyl-1-(6-methyl-4-(trifluoromethyl)pyridin-2-yl)-1,3a,4,5,10,11a-hexahydro-2H-benzo[b]pyrrolo[2,3-f][1,4]diazocine-2,11(3H)-dione] registered a Kinact/Kl of 580000 M⁻¹ s⁻¹.

The molecule `C=CC(=O)N1CC(N2CC[C@@H](CN3C[C@H]4CC(=O)N(c5cc(C(F)(F)F)cc(C)n5)[C@@H]4C(=O)N(C)c4cccc(Cl)c43)C2)C1` [Example 219, (3aR,11aS)-5-(((R)-1-(1-acryloylazetidin-3-yl)pyrrolidin-3-yl)methyl)-6-chloro-10-methyl-1-(6-methyl-4-(trifluoromethyl)pyridin-2-yl)-1,3a,4,5,10,11a-hexahydro-2H-benzo[b]pyrrolo [2,3-f][1,4] diazocine-2,11(3H)-dione] gave a Kinact/Kl of 560000 M⁻¹ s⁻¹.

Molecule `C=CC(=O)N1CC(N(C)CCCN2C[C@H]3CC(=O)N(c4cc(C(F)(F)F)cc(C)n4)[C@@H]3C(=O)N(C)c3cccc(C)c32)C1` [Example 205, (3aR,11aS)-5-(3-((1-acryloylazetidin-3-yl)(methyl)amino)propyl)-6,10-dimethyl-1-(6-methyl-4-(trifluoromethyl)pyridin-2-yl)-1,3a,4,5,10,11a-hexahydro-2H-benzo[b]pyrrolo [2,3-f][1,4]diazocine-2,11(3H)-dione] yielded a Kinact/Kl of 1.67e+06 M⁻¹ s⁻¹.

As for `C=CC(=O)N1CC(N2CC[C@@H](CN3C[C@H]4CC(=O)N(c5cc(C(F)(F)F)cc(C)n5)[C@@H]4C(=O)N(C)c4cccc(C)c43)C2)C1` [Example 224, (3aR,11aS)-5-(((R)-1-(1-acryloylazetidin-3-yl)pyrrolidin-3-yl)methyl)-6,10-dimethyl-1-(6-methyl-4-(trifluoromethyl)pyridin-2-yl)-1,3a,4,5,10,11a-hexahydro-2H-benzo[b]pyrrolo [2,3-f][1,4] diazocine-2,11(3H)-dione], the Kinact/Kl was 4.21e+06 M⁻¹ s⁻¹.

In the case of `C#CC(=O)N1Cc2nc(CN3C[C@H]4CC(=O)N(c5cc(C(F)(F)F)cc(C)n5)[C@@H]4C(=O)N(C)c4cccc(C)c43)cn2C[C@H]1C` (racemic) [Example 199, (3aR,11aS)-6,10-dimethyl-1-(6-methyl-4-(tri-fluoromethyl)pyr-idin-2-yl)-5-(((R/S)-6-methyl-7-propioloyl-5,6,7,8-tetrahydro-imidazo[1,2-a]pyr-azin-2-yl)methyl)-1,3a,4,5,10,11a-hexahydro-2H-benzo[b]pyrrolo [2,3-f][1,4]diazo-cine-2,11(3H)-dione], the Kinact/Kl came out at 1.38e+06 M⁻¹ s⁻¹.

`C=CC(=O)N1CC[C@H](N(C)CCN2C[C@H]3CC(=O)N(c4cc(C(F)(F)F)cc(C)n4)[C@@H]3C(=O)N(C)c3cccc(Cl)c32)[C@H](F)C1` [Example 67, (3aR,11aS)-5-(2-(((3R,4S)-1-acryloyl-3-fluoropiperidin-4-yl)(methyl)amino)ethyl)-6-chloro-10-methyl-1-(6-methyl-4-(trifluoromethyl)pyridin-2-yl)-1,3a,4,5,10,11a-hexahydro-2H-benzo[b]pyrrolo[2,3-f][1,4]diazocine-2,11(3H)-dione] had a Kinact/Kl of 2.32e+06 M⁻¹ s⁻¹.

In turn, `C=CC(=O)N1CC(N2CCN(CCN3C[C@H]4CC(=O)N(c5cc(C(F)(F)F)cc(C)n5)[C@@H]4C(=O)N(C)c4cc(F)cc(C5CC5)c43)CC2)C1` [Example 19, (3aR,11aS)-5-(2-(4-(1-acryloylazetidin-3-yl)piperazin-1-yl)ethyl)-6-cyclopropyl-8-fluoro-10-methyl-1-(6-methyl-4-(trifluoromethyl)pyridin-2-yl)-1,3a,4,5,10,11a-hexahydro-2H-benzo[b]pyrrolo[2,3-f][1,4]diazocine-2,11(3H)-dione] registered a Kinact/Kl of 350000 M⁻¹ s⁻¹.

With `C=CC(=O)N1Cc2ncc(CN3C[C@H]4CC(=O)N(c5cc(C(F)(F)F)cc(C)n5)[C@@H]4C(=O)N(C)c4cccc(C)c43)nc2C1` [Example 228, (3aR,11aS)-5-((6-acryloyl-6,7-dihydro-5H-pyrrolo[3,4-b]pyrazin-2-yl)methyl)-6,10-dimethyl-1-(6-methyl-4-(trifluoromethyl)pyridin-2-yl)-1,3a,4,5,10,11a-hexahydro-2H-benzo[b]pyrrolo[2,3-f][1,4]diazocine-2,11(3H)-dione], the Kinact/Kl was determined as 2.26e+06 M⁻¹ s⁻¹.
